According to US8999973B2, “Thieno[3,2-d]pyrimidine derivatives having inhibitory activity on protein kinases” (Hanmi Science Co., Ltd, priority 2010, dated 2015):
Substitutions are numbered along the chain they refer to.

Tests used:
Bcr-Abl^wt = biological target: T1, Bcr-Abl^wt (Homo sapiens, UniProt P00519); assay: Kinase activation assay (IC50), fluorescence polarization tyrosine kinase assay kit; type: biochemical; details: kinase domain (Millipore), Poly (Glu, Tyr) 4:1 substrate, FP readout
T1 construct: purchased Millipore
T1 sequence (P00519 242-493 limits assumed): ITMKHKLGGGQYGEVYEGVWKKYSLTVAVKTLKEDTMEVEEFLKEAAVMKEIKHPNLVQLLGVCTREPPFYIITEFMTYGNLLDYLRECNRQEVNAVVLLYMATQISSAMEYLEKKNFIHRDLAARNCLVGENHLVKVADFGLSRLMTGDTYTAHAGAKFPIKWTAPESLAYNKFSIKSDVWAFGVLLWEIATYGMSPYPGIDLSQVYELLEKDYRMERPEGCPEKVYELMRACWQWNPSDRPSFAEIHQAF
Procedure: (§1) Test 1: Kinase Activation Assay (IC50)
(§2) A kinase domain (Millipore) comprising the entire cytoplasmic sequences of Bcr-Abl^wt and Bcr-Abl^T315I mutation kinases and a tyrosine kinase assay kit (Panvera, P2837) were used to measure an inhibitory activation on Bcr-abl. Other kinases such as FGFR, Flt, KDR, PDGFR, Fms, Kit, Raf, Tie2, Src, and Ret were also measured by the same method. In order to prepare a sample, the each compound obtained in Examples 1 to 128 was diluted 10 times with a kinase buffer to a concentration of 10˜0.0001 μM.
(§3) The each kinase was diluted with a kinase buffer to a concentration of 30˜300 ng/assay by using the each Kd value. The kinase buffer consisted of 100 mM HEPES (PH 7.4), 25 mM MgCl2, 10 mM MnCl2, and 250 μM Na3VO4, being kept refrigerated after filtered.
(§4) The test was conducted in 96 well polystyrene round bottom plates. First, 10 μL of the diluted sample was combined with 10 μL of the enzyme solution at room temperature for 10 minutes using a shaker. 10 μL of Poly (Glu, Tyr) 4:1 (Sigma) matrix solution in an appropriate concentration and 10 μL of ATP solution (5˜300 μM) were added to the sample and subjected to a reaction at room temperature for 60 minutes in a shaker. After 60 minutes, an EDTA solution was added thereto to complete the kinase reaction and the reaction mixture was left in a shaker for 5 minutes at room temperature. A tracer, an antibody, and a fluorescence polarization (FP) diluted reaction solution were mixed at a ratio of 1:1:3 to prepare a detecting solution, 50 μL of which was added to the each sample and subjected to a reaction at room temperature for 30 minutes in a shaker. As fluorescing, light was blocked out and the FP value was measured using a FP instrument (excitation wavelength: 485 nm, and emission wavelength: 530 nm).
(§5) And the inhibition on kinase reaction was calculated for the sample in the range of 0˜100% as compared to the control group, and the concentration on x-axis at 50% inhibition was obtained as an inhibitory concentration (IC50) value.
(§6) 50% inhibitory concentration (IC50) Y=bottom+(top−bottom)/(1+10exp(X−log IC50)

Bcr-Abl^T315I = biological target: T2, Bcr-Abl^T315I (Homo sapiens, UniProt P00519, T315I); assay: as above; type: biochemical; details: T315I mutation kinase domain (Millipore), Poly (Glu, Tyr) 4:1 substrate, FP readout
T2 construct: purchased Millipore
T2 sequence (P00519 242-493 T315I limits assumed): T1 sequence (P00519 242-493 limits assumed) with T74I
Procedure: as §1, §2, §3, §4, §5, §6

Structure (SMILES)	IC50 (Bcr-Abl^wt) [nM]	IC50 (Bcr-Abl^T315I) [nM]
Cc1ccc(NC(=O)c2ccc(C(F)(F)F)cc2)cc1NC(=O)c1csc2c(N)ncnc12 [Example 66, 4-amino-N-(2-methyl-5-(4-(trifluoromethyl)benzamido)phenyl)thieno[3,2-d]pyrimidine-7-carboxamide]	100 to 1000	1000 to 10000
Cc1ccc(NC(=O)c2cc(C3CC3)on2)cc1NC(=O)c1csc2c(N)ncnc12 [Example 67, N-(3-(4-aminothieno[3,2-d]pyrimidine-7-carboxyamido)-4-methylphenyl)-5-cyclopropylisoxazol-3-carboxamide]	1 to 100	1000 to 10000
Cc1cc(C(=O)Nc2ccc(C)c(NC(=O)c3csc4c(N)ncnc34)c2)n(Cc2ccc(F)cc2)n1 [Example 68, 4-amino-N-(5-(1-(4-fluorobenzyl)-3-methyl-1H-pyrazole-5-carboxyamido)-2-methylphenyl)thieno[3,2-d]pyrimidine-7-carboxamide]	1000 to 10000	1000 to 10000
Cc1ccc(NC(=O)c2cccc(C(F)(F)F)c2)cc1NC(=O)c1csc2c(NC3CCCC3)ncnc12 [Example 71, 4-(cyclopentylamino)-N-(2-methyl-5-(3-(trifluoromethyl)benzamido)phenyl)thieno[3,2-d]pyrimidine-7-carboxamide]	1 to 100	1000 to 10000
Cc1ccc(NC(=O)c2ccc(CN3CC[C@H](N(C)C)C3)c(C(F)(F)F)c2)cc1NC(=O)c1csc2c(NC3CC3)ncnc12 [Example 76, (S)-4-(cyclopropylamino)-N-(5-(4-((3-(dimethylamino)pyrrolidin-1-yl)methyl)-3-(trifluoromethyl)benzoamido)-2-methylphenyl)thieno[3,2-d]pyrimidine-7-carboxamide]	1 to 100	1 to 100
CNc1ncnc2c(C(=O)Nc3cc(NC(=O)c4cc(-n5cnc(C)c5)cc(C(F)(F)F)c4)ccc3C)csc12 [Example 78, N-(2-methyl-5-(3-(4-methyl-1H-imidazole-1-yl)-5-(trifluoromethyl)benzoamido)phenyl)-4-(methylamino)thieno[3,2-d]pyrimidine-7-carboxamide]	1 to 100	100 to 1000
Cc1ccc(NC(=O)c2cc(-n3ccnc3C)cc(C(F)(F)F)c2)cc1NC(=O)c1csc2c(NC3CC3)ncnc12 [Example 83, 4-(cyclopropylamino)-N-(2-methyl-5-(3-(2-methyl-1H-imidazole-1-yl)-5-(trifluoromethyl)benzoamido)phenyl)thieno[3,2-d]pyrimidine-7-carboxamide]	1 to 100	1 to 100
Cc1ccc(NC(=O)c2cc(N3CCOCC3)cc(C(F)(F)F)c2)cc1NC(=O)c1csc2c(NC3CC3)ncnc12 [Example 86]	1 to 100	100 to 1000
Cc1ccc(NC(=O)c2ccc(CN3CCCN(C)CC3)c(C(F)(F)F)c2)cc1NC(=O)c1csc2c(NC3CC3)ncnc12 [Example 87, 4-(cyclopropylamino)-N-(2-methyl-5-(4-((4-methyl-1,4-diazepan-1-yl)methyl)-3-(trifluoromethyl)benzoamido)phenyl)thieno[3,2-d]pyrimidine-7-carboxamide]	1 to 100	1 to 100
Cc1ccc(NC(=O)c2cc(N3CCCN(C)CC3)cc(C(F)(F)F)c2)cc1NC(=O)c1csc2c(NC3CC3)ncnc12 [Example 93, 4-(cyclopropylamino)-N-(2-methyl-5-(3-(4-methyl-1,4-diazepan-1-yl)-5-(trifluoromethyl)benzoamido)phenyl)thieno[3,2-d]pyrimidine-7-carboxamide]	1 to 100	1 to 100
CN(C)[C@H]1CCN(c2cc(C(=O)Nc3ccc(F)c(NC(=O)c4csc5c(NC6CC6)ncnc45)c3)cc(C(F)(F)F)c2)C1 [Example 107, (S)-4-(cyclopropylamino)-N-(5-(3-(3-(dimethylamino)pyrrolidine-1-yl)-5-(trifluoromethyl)benzoamido)-2-fluorophenyl)thieno[3,2-d]pyrimidine-7-carboxamide]	1 to 100	100 to 1000
CCN1CCN(c2cc(C(=O)Nc3ccc(C)c(NC(=O)c4csc5c(NC6CC6)ncnc45)c3)cc(C(F)(F)F)c2)CC1 [Example 110, 4-(cyclopropylamino)-N-(5-(3-(4-ethylpiperazin-1-yl)-5-(trifluoromethyl)benzoamido)-2-methylphenyl)thieno[3,2-d]pyrimidine-7-carboxamide]	1 to 100	100 to 1000
Cc1ccc(NC(=O)c2cc(N3CCC[C@H]3C)cc(C(F)(F)F)c2)cc1NC(=O)c1csc2c(NC3CC3)ncnc12 [Example 113, (R)-4-(cyclopropylamino)-N-(2-methyl-5-(3-(2-methylpyrrolidine-1-yl)-5-(trifluoromethyl)benzoamido)phenyl)thieno[3,2-d]pyrimidine-7-carboxamide]	100 to 1000	100 to 1000
Cc1ccc(NC(=O)c2cc(NC3CCN(C)CC3)cc(C(F)(F)F)c2)cc1NC(=O)c1csc2c(NC3CC3)ncnc12 [Example 116, 4-(cyclopropylamino)-N-(2-methyl-5-(3-(1-methylpiperidine-4-ylamino)-5-(trifluoromethyl)benzoamido)phenyl)thieno[3,2-d]pyrimidine-7-carboxamide]	1 to 100	1 to 100
Cc1cn(-c2cc(C(=O)Nc3ccc(F)c(NC(=O)c4csc5c(NC6CC6)ncnc45)c3)cc(C(F)(F)F)c2)cn1 [Example 121, 4-(cyclopropylamino)-N-(2-fluoro-5-(3-(4-methyl-1H-imidazole-1-yl)-5-(trifluoromethyl)benzoamido)phenyl)thieno[3,2-d]pyrimidine-7-carboxamide]	1 to 100	1 to 100
